For 27 molecules, Emax and EC50 results are on record in US20250230155A1 (Vanderbilt University, priority 2021, published 2025).

The target of this test is T1, human mAChR M4 (Homo sapiens, UniProt P08173).
T1 construct: expressed in transfected cells
T1 sequence (P08173 1-479): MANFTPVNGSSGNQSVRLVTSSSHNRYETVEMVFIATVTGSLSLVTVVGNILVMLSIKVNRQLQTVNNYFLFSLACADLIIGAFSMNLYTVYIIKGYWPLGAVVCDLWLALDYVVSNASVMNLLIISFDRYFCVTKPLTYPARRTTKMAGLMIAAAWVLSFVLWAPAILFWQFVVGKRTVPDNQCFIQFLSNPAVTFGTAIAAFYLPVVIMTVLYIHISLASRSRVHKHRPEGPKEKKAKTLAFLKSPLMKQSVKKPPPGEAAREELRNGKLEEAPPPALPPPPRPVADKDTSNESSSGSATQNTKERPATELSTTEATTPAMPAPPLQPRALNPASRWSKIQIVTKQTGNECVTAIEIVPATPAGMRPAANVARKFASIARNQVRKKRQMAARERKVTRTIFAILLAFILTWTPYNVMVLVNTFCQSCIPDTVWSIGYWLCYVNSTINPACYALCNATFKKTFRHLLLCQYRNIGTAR
Briefly: mAChR M4 cell-based functional assay (calcium mobilization, CHO-K1 hM4-Gqi5 cells). The note with it: for Emax at 30 µM: CHO-K1, % ACh maximum at 30 μM, human M4; for EC50: positive allosteric modulator activity, increase in the EC20 acetylcholine response, CHO-K1 hM4-Gqi5 cells, read-out: Human M4 EC50. In short, it runs like this: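 CHO-K1 cells stably expressing human M4 with chimeric Gqi5, loaded with Fluo-4 AM; compounds given as 11-point 1:3 curves and calcium flux read on FDSS at 1 Hz. Acetylcholine EC20 added at 144 s, EC80 at 230 s; agonist, PAM (EC20 potentiation) and antagonist (EC80 inhibition) EC50/Emax from four-parameter fits.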
(In general: A change in cytosolic calcium serves as a functional read-out for many receptors and channels.)

Some results are limits rather than exact numbers.

As for `Cc1cc(C#N)nnc1N1CCc2ncc(N3CCN(C)C(=O)C3)cc2C1` [Example 410, 5-methyl-6-(3-(4-methyl-3-oxopiperazin-1-yl)-7,8-dihydro-1,6-naphthyridin-6(5H)-yl)pyridazine-3-carbonitrile], the Emax at 30 µM turned out to be 89% and the EC50 was determined as 3800 nM.

For the molecule `Cc1cc(C#N)cnc1N1CCc2ncc(N3CCCn4ccnc43)cc2C1` [Example 411, 6-(3-(6,7-dihydroimidazo[1,2-a]pyrimidin-8(5H)-yl)-7,8-dihydro-1,6-naphthyridin-6(5H)-yl)-5-methylnicotinonitrile], the Emax at 30 µM amounted to 47% and the EC50 was determined as 2250 nM.

As for `Cc1cc(C#N)cnc1N1CCc2ncc(N3CCCn4nc(C(F)(F)F)cc43)cc2C1` [Example 412, 5-methyl-6-(3-(2-(trifluoromethyl)-6,7-dihydropyrazolo[1,5-a]pyrimidin-4(5H)-yl)-7,8-dihydro-1,6-naphthyridin-6(5H)-yl)nicotinonitrile], the Emax at 30 µM was determined as 62% and the EC50 was 306 nM.

`Cc1cc(C#N)nnc1N1CCc2ncc(N3CCCn4nc(C(F)(F)F)cc43)cc2C1` [Example 413, 5-methyl-6-(3-(2-(trifluoromethyl)-6,7-dihydropyrazolo[1,5-a]pyrimidin-4(5H)-yl)-7,8-dihydro-1,6-naphthyridin-6(5H)-yl)pyridazine-3-carbonitrile]: the Emax at 30 µM was found to be 102% and the EC50 stood at 257 nM.

As for `Cc1cc(C#N)cnc1N1CCc2ncc(N3CCCn4nc(C(C)(C)C)cc43)cc2C1` [Example 414, 6-(3-(2-(tert-butyl)-6,7-dihydropyrazolo[1,5-a]pyrimidin-4(5H)-yl)-7,8-dihydro-1,6-naphthyridin-6(5H)-yl)-5-methylnicotinonitrile], the Emax at 30 µM is 65% and the EC50 was found to be 739 nM.

For `Cc1cc(C#N)cnc1N1CCc2ncc(N3CCCn4nc(C5CC5)cc43)cc2C1` [Example 415, 6-(3-(2-cyclopropyl-6,7-dihydropyrazolo[1,5-a]pyrimidin-4(5H)-yl)-7,8-dihydro-1,6-naphthyridin-6(5H)-yl)-5-methylnicotinonitrile], the Emax at 30 µM came to 72% and the 50% effective concentration (EC50) turned out to be 94 nM.

Take `[2H]C1([2H])N(c2cnc3c(c2)CN(c2nnc(C#N)cc2C)CC3)c2ccnn2C([2H])([2H])C1([2H])[2H]` [Example 416, 6-(3-(6,7-dihydropyrazolo[1,5-a]pyrimidin-4(5H)-yl-5,5,6,6,7,7-d6)-7,8-dihydro-1,6-naphthyridin-6(5H)-yl)-5-methylpyridazine-3-carbonitrile]: the Emax at 30 µM was determined as 115% and the EC50 stood at 116 nM.

Regarding `[2H]C1([2H])N(c2cnc3c(c2)CN(c2ncc(C#N)cc2C)CC3)c2ccnn2C([2H])([2H])C1([2H])[2H]` [Example 417, 6-(3-(6,7-dihydropyrazolo[1,5-a]pyrimidin-4(5H)-yl-5,5,6,6,7,7-d6)-7,8-dihydro-1,6-naphthyridin-6(5H)-yl)-5-methylnicotinonitrile], the Emax at 30 µM came to 110% and the EC50 was found to be 24 nM.

As to `Cc1cc(C#N)nnc1N1CCc2ncc(N3CCCn4nc(C(C)(C)C)cc43)cc2C1` [Example 418, 6-(3-(2-(tert-butyl)-6,7-dihydropyrazolo[1,5-a]pyrimidin-4(5H)-yl)-7,8-dihydro-1,6-naphthyridin-6(5H)-yl)-5-methylpyridazine-3-carbonitrile], the Emax at 30 µM came out at 80% and the EC50 turned out to be 516 nM.

Consider `Cc1cc(C#N)nnc1N1CCc2ncc(N3CCCn4nc(C5CC5)cc43)cc2C1` [Example 419, 6-(3-(2-cyclopropyl-6,7-dihydropyrazolo[1,5-a]pyrimidin-4(5H)-yl)-7,8-dihydro-1,6-naphthyridin-6(5H)-yl)-5-methylpyridazine-3-carbonitrile], for which the Emax at 30 µM amounted to 87% and the 50% effective concentration (EC50) was 284 nM.

For `Cc1cc(C#N)cnc1N1CCc2ncc(N3CCN(C)CC3=O)cc2C1` [Example 420, 5-methyl-6-(3-(4-methyl-2-oxopiperazin-1-yl)-7,8-dihydro-1,6-naphthyridin-6(5H)-yl)nicotinonitrile], the Emax at 30 µM was found to be 43% and the EC50 was not below 10000 nM.

As to `[2H]C([2H])([2H])c1cnc2c(c1)CN(c1nnc(C#N)cc1C)CC2` [Example 421, 5-methyl-6-(3-(methyl-d3)-7,8-dihydro-1,6-naphthyridin-6(5H)-yl)pyridazine-3-carbonitrile], the EC50 was 336 nM. For the same molecule, the Emax (CHO-K1) was 89%.

For the molecule `Cc1cc(C#N)nnc1N1CCc2ncc(CC(F)(F)F)cc2C1` [Example 422, 5-methyl-6-(3-(2,2,2-trifluoroethyl)-7,8-dihydro-1,6-naphthyridin-6(5H)-yl)pyridazine-3-carbonitrile], the Emax at 30 µM is 94% and the 50% effective concentration (EC50) was determined as 523 nM.

Regarding `Cc1cc(C#N)cnc1N1CCc2ncc(CC(F)(F)F)cc2C1` [Example 423, 5-methyl-6-(3-(2,2,2-trifluoroethyl)-7,8-dihydro-1,6-naphthyridin-6(5H)-yl)nicotinonitrile], the Emax at 30 µM is 76% and the EC50 was determined as 229 nM.

`Cc1cc(C#N)nnc1N1CCc2ncc(C(C)(O)C(F)(F)F)cc2C1` (stereo not drawn) [Example 424, 5-methyl-6-(3-(1,1,1-trifluoro-2-hydroxypropan-2-yl)-7,8-dihydro-1,6-naphthyridin-6(5H)-yl)pyridazine-3-carbonitrile]: the Emax at 30 µM amounted to 86% and the EC50 turned out to be 1430 nM.

As to `Cc1c(C#N)nnc(N2CCc3ncc(C(C)(O)C(F)(F)F)cc3C2)c1C` (stereo not drawn) [Example 425, 4,5-dimethyl-6-(3-(1,1,1-trifluoro-2-hydroxypropan-2-yl)-7,8-dihydro-1,6-naphthyridin-6(5H)-yl)pyridazine-3-carbonitrile], the Emax at 30 µM stood at 61% and the EC50 worked out at 621 nM.

`Cc1cc(C#N)cnc1N1CCc2ncc(C(C)(O)C(F)(F)F)cc2C1` (stereo not drawn) [Example 426, 5-methyl-6-(3-(1,1,1-trifluoro-2-hydroxypropan-2-yl)-7,8-dihydro-1,6-naphthyridin-6(5H)-yl)nicotinonitrile]: the maximal response (Emax) at 30 µM came out at 95% and the EC50 worked out at 577 nM.

`Cc1cc(C#N)cnc1N1CCc2ncc(OCCOc3ccccc3)cc2C1` [Example 427, 5-methyl-6-(3-(2-phenoxyethoxy)-7,8-dihydro-1,6-naphthyridin-6(5H)-yl)nicotinonitrile]: the Emax at 30 µM worked out at 63% and the EC50 amounted to 2670 nM.

As for `Cc1cc(C#N)cnc1N1CCc2ncc(OCCOc3ccc(F)cc3)cc2C1` [Example 428, 6-(3-(2-(4-fluorophenoxy)ethoxy)-7,8-dihydro-1,6-naphthyridin-6(5H)-yl)-5-methylnicotinonitrile], the Emax at 30 µM amounted to 59% and the 50% effective concentration (EC50) was determined as 2350 nM.

With `Cc1cc(C#N)cnc1N1CCc2ncc(OCCOc3ccccc3F)cc2C1` [Example 429, 6-(3-(2-(2-fluorophenoxy)ethoxy)-7,8-dihydro-1,6-naphthyridin-6(5H)-yl)-5-methylnicotinonitrile], the Emax at 30 µM turned out to be 57% and the EC50 is 2520 nM.

`Cc1ccccc1OCCOc1cnc2c(c1)CN(c1ncc(C#N)cc1C)CC2` [Example 430, 5-methyl-6-(3-(2-(o-tolyloxy)ethoxy)-7,8-dihydro-1,6-naphthyridin-6(5H)-yl)nicotinonitrile]: the Emax at 30 µM was determined as 42% and the EC50 is 6530 nM.

Turning to `Cc1ccc(OCCOc2cnc3c(c2)CN(c2ncc(C#N)cc2C)CC3)cc1` [Example 431, 5-methyl-6-(3-(2-(p-tolyloxy)ethoxy)-7,8-dihydro-1,6-naphthyridin-6(5H)-yl)nicotinonitrile], the Emax at 30 µM was 47% and the EC50 is not below 10000 nM.

Regarding `Cc1cc(C#N)cnc1N1CCc2ncc(OCCCOc3ccccc3)cc2C1` [Example 432, 5-methyl-6-(3-(3-phenoxypropoxy)-7,8-dihydro-1,6-naphthyridin-6(5H)-yl)nicotinonitrile], the Emax at 30 µM came to 48% and the EC50 was determined as 6800 nM.

Turning to `Cc1cc(C#N)cnc1N1CCc2ncc(OCCOC3CCCC3)cc2C1` [Example 433, 6-(3-(2-(cyclopentyloxy)ethoxy)-7,8-dihydro-1,6-naphthyridin-6(5H)-yl)-5-methylnicotinonitrile], the Emax at 30 µM was 74% and the concentration giving a half-maximal response (EC50) worked out at 897 nM.

Regarding `COCCOc1cnc2c(c1)CN(c1ncc(C#N)cc1C)CC2` [Example 434, 6-(3-(2-methoxyethoxy)-7,8-dihydro-1,6-naphthyridin-6(5H)-yl)-5-methylnicotinonitrile], the Emax at 30 µM turned out to be 102% and the EC50 came to 958 nM.

In the case of `Cc1cncc(-c2cnc3c(c2)CN(c2nnc(C#N)c(C)c2C)CC3)c1` [Example 435, 4,5-dimethyl-6-(3-(5-methylpyridin-3-yl)-7,8-dihydro-1,6-naphthyridin-6(5H)-yl)pyridazine-3-carbonitrile], the Emax at 30 µM came out at 61% and the half-maximal effective concentration (EC50) was 914 nM.

As for `Cc1cc(F)ncc1-c1cnc2c(c1)CN(c1ncc(C#N)cc1C)CC2` [Example 436, 6-(3-(6-fluoro-4-methylpyridin-3-yl)-7,8-dihydro-1,6-naphthyridin-6(5H)-yl)-5-methylnicotinonitrile], the Emax at 30 µM amounted to 98% and the EC50 turned out to be 69 nM.

In general, Emax refers to the maximal effect, on the per cent scale that the assay sets. As a reminder, the EC50 is the concentration giving half of the maximal effect.
